From publication PMC11055700 (Chemicke Zvesti, 2024)
Where two headings read alike, the source gives them in different places.

Tests used:
[1] = molecular target: T1, SARS-CoV-2 Spike-RBD (beta) / ACE2 (Homo sapiens, UniProt Q9BYF1); assay: biochemical; assay type: binding
T1 construct: a SARS-CoV-2 RBD protein containing a C-terminal His tag; a full-length ACE2 peptide with a C-terminal Fc tag; purchased Sino Biological

[2] = molecular target: T2, SARS-CoV-2 Spike-RBD (delta) / ACE2 (Homo sapiens, UniProt Q9BYF1); assay: biochemical; assay type: binding
T2 construct: a SARS-CoV-2 RBD protein containing a C-terminal His tag; a full-length ACE2 peptide with a C-terminal Fc tag; purchased Sino Biological

[3] = molecular target: T3, SARS-CoV-2 Spike-RBD (lambda) / ACE2 (Homo sapiens, UniProt Q9BYF1); assay: biochemical; assay type: binding
T3 construct: a SARS-CoV-2 RBD protein containing a C-terminal His tag; a full-length ACE2 peptide with a C-terminal Fc tag; purchased Sino Biological

[4] = molecular target: T4, SARS-CoV-2 Spike-RBD (omicron) / ACE2 (Homo sapiens, UniProt Q9BYF1); assay: biochemical; assay type: binding
T4 construct: a SARS-CoV-2 RBD protein containing a C-terminal His tag; a full-length ACE2 peptide with a C-terminal Fc tag; purchased Sino Biological

[5] = molecular target: T5, SARS-CoV-2 Spike-RBD (ancestral, WT) / ACE2 (Homo sapiens, UniProt Q9BYF1); assay: biochemical; assay type: binding; conditions: IC50 Spike/ACE2
T5 construct: a SARS-CoV-2 RBD protein containing a C-terminal His tag; a full-length ACE2 peptide with a C-terminal Fc tag; purchased Sino Biological

[6] = molecular target: T6, human PD-1 / human PD-L1 (Homo sapiens, UniProt Q15116+Q9NZQ7); assay: AlphaScreen PD-1-PD-L1 binding assay; conditions: unrelated ligand-receptor pair
T6 construct: purchased Sino Biological
T6 sequence (Q15116 25-167 limits assumed): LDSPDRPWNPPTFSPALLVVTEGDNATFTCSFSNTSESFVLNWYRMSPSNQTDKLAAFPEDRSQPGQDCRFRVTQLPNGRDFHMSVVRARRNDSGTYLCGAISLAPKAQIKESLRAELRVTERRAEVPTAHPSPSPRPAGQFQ
T6 sequence (Q9NZQ7 19-239 limits assumed): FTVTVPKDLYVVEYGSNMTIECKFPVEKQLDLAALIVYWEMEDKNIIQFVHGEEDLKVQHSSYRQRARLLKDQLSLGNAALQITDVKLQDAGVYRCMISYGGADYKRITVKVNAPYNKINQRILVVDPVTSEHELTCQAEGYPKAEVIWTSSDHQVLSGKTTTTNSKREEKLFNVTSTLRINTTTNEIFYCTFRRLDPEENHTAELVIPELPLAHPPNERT

T1 sequence (Q9BYF1 18-740): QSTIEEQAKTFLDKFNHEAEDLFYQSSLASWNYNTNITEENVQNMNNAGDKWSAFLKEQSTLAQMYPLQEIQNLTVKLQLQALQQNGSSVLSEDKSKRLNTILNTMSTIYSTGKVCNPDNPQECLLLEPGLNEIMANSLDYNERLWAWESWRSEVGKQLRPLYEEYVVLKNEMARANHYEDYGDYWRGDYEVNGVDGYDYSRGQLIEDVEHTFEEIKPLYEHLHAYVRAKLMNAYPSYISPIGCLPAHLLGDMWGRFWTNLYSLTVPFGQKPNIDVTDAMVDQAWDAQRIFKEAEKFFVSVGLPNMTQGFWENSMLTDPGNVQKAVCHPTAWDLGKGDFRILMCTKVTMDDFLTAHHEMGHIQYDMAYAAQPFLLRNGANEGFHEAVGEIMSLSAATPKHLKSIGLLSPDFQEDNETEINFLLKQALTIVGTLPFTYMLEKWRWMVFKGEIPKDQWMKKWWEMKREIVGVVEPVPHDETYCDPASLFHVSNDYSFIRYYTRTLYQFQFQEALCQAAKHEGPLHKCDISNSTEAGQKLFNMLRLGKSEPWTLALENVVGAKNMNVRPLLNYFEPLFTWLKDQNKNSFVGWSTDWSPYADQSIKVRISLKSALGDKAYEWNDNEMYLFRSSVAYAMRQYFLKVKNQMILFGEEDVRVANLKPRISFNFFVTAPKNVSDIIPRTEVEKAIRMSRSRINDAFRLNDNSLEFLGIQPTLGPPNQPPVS
T2 sequence (Q9BYF1 18-740): as above
T3 sequence (Q9BYF1 18-740): as above
T4 sequence (Q9BYF1 18-740, change not shown): as the sequence (Q9BYF1 18-740) above
T5 sequence (Q9BYF1 18-740): as above

## REGN10933
[1]
  fold weaker against the beta RBD: ~ 70 fold
[1]; read-out: IC50 spike RBD/ACE2 binding, Beta RBD sequence
  IC50: 90.9 nM
[2]; read-out: IC50 spike RBD/ACE2 binding, Delta RBD sequence
  IC50: 1.4 nM
[3]; read-out: IC50 spike RBD/ACE2 binding, Lambda RBD sequence
  IC50: 0.8 nM
[4]; read-out: IC50 spike RBD/ACE2 binding, Omicron RBD sequence
  IC50: > 700 nM

## O=C1Nc2ccc(Cl)cc2C1=NNc1ccc([N+](=O)[O-])cc1[N+](=O)[O-] [H2L, 5-chloro-3-(2-(2,4-dinitrophenyl)hydrazono)indolin-2-one]
[5]
  IC50: 260 nM
[1]
  IC50: 490 nM
[2]
  IC50: 464 nM
[3]
  IC50: 628 nM
[4]
  IC50: 615 nM
[6]
  IC50: 2060 nM
other
  melting point: > 350 °C
